Results from US11046672B2, “Indolinones compounds and their use in the treatment of fibrotic diseases” (RESPIVERT LIMITED, priority 2015, dated 2021).

Assays:
PDGFRβ [1] = biological target: T1, PDGFRβ (Homo sapiens (Human), UniProt P09619); test: PDGF-BB induced phosphorylation of PDGFRβ in fibroblasts (MRC5 cells, HTRF); type: cell-based; settings: MRC5 cells; n = 1 unless otherwise indicated; read-out: PDGFBB-induced PDGFRβ phosphorylation in MRC5 cells (IC50)
PAMPA permeability assay = type: in vitro ADME; settings: for Papp at 5 h, 10 μM: pH 7, pH 7, 10 μM
PDGFRβ [2] = biological target: T1, PDGFRβ; settings: read-out: Ki PDGFRβ; mean, n = 2 unless otherwise indicated
MRC5 cells = test: Cell viability assay in MRC5 cells (MTT)
PDGFRβ [3] = biological target: T1, PDGFRβ; test: Duration of action (washout) against PDGF-BB induced phosphorylation of PDGFRβ in human fetal lung fibroblast cells; type: cell-based; settings: MRC-5 cells, after wash-out, rhuPDGF-BB; experiments in Groups 1-4
[4] = PAMPA, pH 7, PAMPA, donor and acceptor compartments
[5] = pH 7, PAMPA, donor and acceptor compartments

T1 sequence (P09619 33-1106): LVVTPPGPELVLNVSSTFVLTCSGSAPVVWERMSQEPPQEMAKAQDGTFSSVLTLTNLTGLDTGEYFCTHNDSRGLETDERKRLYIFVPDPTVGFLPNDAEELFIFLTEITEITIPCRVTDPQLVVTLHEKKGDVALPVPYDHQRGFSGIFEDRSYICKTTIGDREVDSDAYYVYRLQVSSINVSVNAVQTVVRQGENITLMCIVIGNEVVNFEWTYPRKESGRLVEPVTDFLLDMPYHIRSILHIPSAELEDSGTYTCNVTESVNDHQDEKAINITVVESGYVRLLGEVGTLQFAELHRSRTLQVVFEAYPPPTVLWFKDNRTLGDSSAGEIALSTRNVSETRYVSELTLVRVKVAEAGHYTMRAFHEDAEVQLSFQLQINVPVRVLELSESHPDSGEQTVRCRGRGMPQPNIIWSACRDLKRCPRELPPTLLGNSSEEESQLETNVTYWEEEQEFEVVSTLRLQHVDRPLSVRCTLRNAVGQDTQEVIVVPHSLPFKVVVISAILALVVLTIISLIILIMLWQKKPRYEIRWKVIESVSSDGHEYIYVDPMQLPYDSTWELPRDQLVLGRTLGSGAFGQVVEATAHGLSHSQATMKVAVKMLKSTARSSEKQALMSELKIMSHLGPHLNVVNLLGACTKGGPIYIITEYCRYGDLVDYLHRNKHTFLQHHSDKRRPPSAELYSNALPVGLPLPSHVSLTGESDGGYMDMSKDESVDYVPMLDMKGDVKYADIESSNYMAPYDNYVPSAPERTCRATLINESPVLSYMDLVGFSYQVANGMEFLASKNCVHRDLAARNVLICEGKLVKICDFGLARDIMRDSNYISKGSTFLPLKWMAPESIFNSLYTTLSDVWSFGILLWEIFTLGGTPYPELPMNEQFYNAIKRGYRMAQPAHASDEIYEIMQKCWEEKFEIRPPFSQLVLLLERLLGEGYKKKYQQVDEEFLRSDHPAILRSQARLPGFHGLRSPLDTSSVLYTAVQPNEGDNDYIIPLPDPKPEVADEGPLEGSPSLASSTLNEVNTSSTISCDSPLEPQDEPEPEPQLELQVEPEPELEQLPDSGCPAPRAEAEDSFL

Row | SMILES | IC50 (PDGFRβ [1]) | recovery at 5 hr, 10 μM (PAMPA permeability assay; [4]) | Papp at 5 h, 10 μM (PAMPA permeability assay; PAMPA, 5 hr) | Ki (PDGFRβ [2]) | % Recovery (PAMPA permeability assay; PAMPA, donor and acceptor compartments) | Mean Papp (PAMPA permeability assay; pH 7, 10 μM, 5 hr) | % phos: percentage phosphorylation after wash-out relative to maximal phosphorylation (100%) (PDGFRβ [3]) | Cell viability at 100 nM (%) (MRC5 cells) | Cell viability at 300 nM (%) (MRC5 cells) | Cell viability at 1000 nM (%) (MRC5 cells) | recovery at 5 hr, 10 μM (PAMPA permeability assay; [5])
1 | COC(=O)c1cc2c(cc1C)/C(=C(/Nc1ccc(C(=O)NOCCN3CCCCC3)cc1)c1ccccc1)C(=O)N2 [Example 49] | 40.2 nM | 75.2% | 0.0768 ×10⁻⁶ cm/s | 31.1 nM |  |  |  | 124.5% | 110.8% | 69.4% | 
2 | COC(=O)c1cc2c(cc1C)/C(=C(/Nc1ccc(C(=O)NOCCN3CCC(N(C)C)CC3)cc1)c1ccccc1)C(=O)N2 [Example 50] | 9.42 nM | 179% | 0.0566 ×10⁻⁶ cm/s | 9.24 nM |  |  |  | 107.5% | 92.6% | 69.7% | 
3 | COC(=O)c1cc2c(cc1C)/C(=C(/Nc1ccc(C(=O)NOCCN3CC[C@H](N(C)C)C3)cc1)c1ccccc1)C(=O)N2 [Example 51] | 9.39 nM | 62% | 0.00306 ×10⁻⁶ cm/s | 9.44 nM | 74.7% | 0.00474 10^−6 cm s^−1 |  | 86.5% | 85.8% | 71.2% | 
4 | COC(=O)c1cc2c(cc1C)/C(=C(/Nc1ccc(C(=O)N(C)OCCN3C4CCC3CNC4)cc1)c1ccccc1)C(=O)N2 [Example 60] | 5.6 nM |  | 0.0503 ×10⁻⁶ cm/s | 13 nM |  |  |  | 88.8% | 84.4% | 0.2% | 69.2%
5 | COC(=O)c1cc2c(cc1C)/C(=C(/Nc1ccc(C(=O)N(C)OCCN3CC4CCC(C3)N4)cc1)c1ccccc1)C(=O)N2 [Example 61] | 7.84 nM |  | 0.0205 ×10⁻⁶ cm/s | 18.3 nM |  |  |  | 83% | 86.6% | 35.2% | 64.4%

Second part, led by results:

Row | IC50 (PDGFRβ [1]) | recovery at 5 hr, 10 μM (PAMPA permeability assay; [4]) | Papp at 5 h, 10 μM (PAMPA permeability assay; PAMPA, 5 hr) | Ki (PDGFRβ [2]) | % Recovery (PAMPA permeability assay; PAMPA, donor and acceptor compartments) | Mean Papp (PAMPA permeability assay; pH 7, 10 μM, 5 hr) | % phos: percentage phosphorylation after wash-out relative to maximal phosphorylation (100%) (PDGFRβ [3]) | SMILES | Cell viability at 100 nM (%) (MRC5 cells) | Cell viability at 300 nM (%) (MRC5 cells) | Cell viability at 1000 nM (%) (MRC5 cells) | recovery at 5 hr, 10 μM (PAMPA permeability assay; [5])
6 | 21.8 nM | 76.2% | 0.279 ×10⁻⁶ cm/s | 17 nM |  |  |  | COC(=O)c1cc2c(cc1C)/C(=C(/Nc1ccc(C(=O)NOCCN3CCC(OC)CC3)cc1)c1ccccc1)C(=O)N2 [Example 52] | 62% | 50.9% | 59.8% | 
7 | 3.95 nM | 69.7% | 0.719 ×10⁻⁶ cm/s | 7.19 nM |  |  |  | COC(=O)c1cc2c(cc1C)/C(=C(/Nc1ccc(C(=O)N(C)OCCN(C)CCO)cc1)c1ccccc1)C(=O)N2 [Example 56] | 132% | 121% | 70.5% | 
8 | 5.04 nM | 50.5% | 0.688 ×10⁻⁶ cm/s | 9.84 nM |  |  | 73.1% | COC(=O)c1cc2c(cc1C)/C(=C(/Nc1ccc(C(=O)N(C)OCCN3CCNCC3)cc1)c1ccccc1)C(=O)N2 [Example 57] | 123.5% | 123.2% | 91.2% | 
9 | 4.06 nM | 49.5% | 0.0296 ×10⁻⁶ cm/s | 8.87 nM |  |  |  | COC(=O)c1cc2c(cc1C)/C(=C(/Nc1ccc(C(=O)N(C)OCCN3CCN(CCO)CC3)cc1)c1ccccc1)C(=O)N2 [Example 58] | 110.2% | 116.9% | 55.6% | 
10 | 25.4 nM | 69.6% | 0.0364 ×10⁻⁶ cm/s | 9.19 nM |  |  |  | COC(=O)c1cc2c(cc1C)/C(=C(/Nc1ccc(C(=O)N(C)OCCN3C[C@@H]4C[C@H]3CN4)cc1)c1ccccc1)C(=O)N2 [Example 59] | 123.5% | 107.7% | 103.8% | 
